Patent US20260174863A1, “ISOMERICALLY PURE BETA-CYCLODEXTRIN DERIVATIVES AND USES THEREOF” (Beren Therapeutics P.B.C., priority 2023, published 2026)

Assays:
[1] = system: differentiated human THP-1 monocytes; test: CEC - Cholesterol Efflux Assay (abcam ab196985); type: cell-based; conditions: 4 h, reference standard = non-isomerically pure hydroxypropyl beta-cyclodextrin
Description: Cholesterol Efflux from differentiated human THP-1 monocytes was assessed according to the manufacturer's protocol (abcam, ab196985). Briefly, THP-1 monocytes were differentiated for 48 h in presence of 100 nM phorbol 12-myristate-13-acetate (PMA) in RPMI 1640 growth medium (10% FCS, 1% penicillin/streptomycin) in a humidified incubator (37° C., 5% CO2). Differentiated THP-1 macrophage-like cells were harvested, washed with PBS, resuspended in growth medium, seeded at 1×10^5 cells into 96-well plates, and allowed to adhere for 6h. Cells were washed with serum-free RPMI media, and labelled with 100 μL of fluorescent cholesterol labelling medium (50 uL Labeling Reagent+50 uL serum-free RPMI) for 1 h protected from light. Labeling medium was removed and replaced with 100 μL, 37° C. pre-warmed equilibration medium (50 uL Equilibration Buffer+[…] Reagent A +10 μL/mL Reagent B+50 uL serum-free RPMI) and incubated for 16±1 h in an incubator (37° C., 5% CO2). Equilibration medium was removed, and cells were washed with RPMI (w/o phenol red, w/o serum). Serum cholesterol acceptor was prepared by mixing 2 parts of Serum Treatment Reagent with 5 parts of human serum, incubated on ice for 20 minutes. The mix was centrifuged at 9,000×g for 10 minutes at 4° C., and supernatants were stored on ice until use. THP-1 cells were incubated for 4 h with 100 uL RPMI media (w/o phenol red, w/o serum), spiked with 10 uL of compound (10× stock in PBS) and 2 uL serum acceptor (2%), or RPMI media spiked with 10 uL PBS and 2 uL serum acceptor (negative control). Following incubation, plates were centrifuged and whole supernatants were transferred to an opaque 96-well plate. Remaining cells were lysed by adding 100 μL of Cell Lysis Buffer and shaking at 500 rpm for 25 minutes protected from light. Cell lysate was resuspended and transferred into an opaque 96-well. Plates containing supernatants or cell lysates were measured in a plate reader at 485 nm (excitation) and 523 nm (emission). Percent (%) cholesterol efflux was measured as RFU supernatant/(RFU supernatant +RFU cell lysate)×100%.
The cholesterol efflux from cells treated with compounds of the disclosure at concentrations of 0.1 mM, 0.3 mM and 1 mM, relative to cholesterol efflux from cells treated with a reference standard, are summarized in Table 1. In the table, A denotes compounds with a CEC of >126% of that of the reference standard and B denotes compounds with a CEC of 106% to 125% of that of the reference standard; 0 denotes compounds with a CEC of 96%-105% of that of the reference standard; and—denotes compounds with a CEC of 75%-95% of that of the reference standard. The reference standard is a non-isomerically pure hydroxypropyl beta-cyclodextrin.

[2] = system: differentiated human THP-1 monocytes; test: Cytotoxicity assay, lactate dehydrogenase (LDH) release (CytoTox 96, Promega G1780); type: cell-based; conditions: samples from CEC assay, reference standard = non-isomerically pure hydroxypropyl beta-cyclodextrin
Description: Cytotoxicity was measured using a lactate dehydrogenase (LDH) assay, according to the manufacturer's protocol (CytoTox 96® Non-Radioactive Cytotoxicity Assay, Promega, G1780). Supernatants and cell lysates from CEC assay served as samples. Briefly, 50 uL of supernatant and cell lysates were transferred into separate transparent 96-well plates. 50 uL CytoTox 96© Reagent was added to the wells, mixed by pipetting, and incubated for 10 minutes protected from light. 50 μL of Stop Solution was added, mixed by pipetting, and absorbance (OD) was measured at 490 nm in a plate reader. Phenol red-free RPMI with 10% […] and Cell Lysis Buffer (abcam, ab196985) served as background controls. Percent (%) cytotoxicity was measured as OD supernatant/(OD supernatant+OD cell lysate)×100%.
Lactate dehydrogenase (LDH) released from cells treated with compounds of the disclosure at concentrations of 0.1 mM, 0.3 mM and 1 mM, relative to LDH) released from cells treated with a reference standard, are summarized in Table 2. In the table, A denotes compounds releasing LDH in an amount of <70% of that of the reference standard; B denotes compounds releasing LDH in an amount of 71-95% of that of the reference standard; 0 denotes compounds releasing LDH in an amount of 96%-105% of that of the reference standard; +denotes compounds releasing LDH in an amount of 106%-120% of that of the reference standard; and ++denotes compounds releasing LDH in an amount of >120% of that of the reference standard The reference standard is a non-isomerically pure hydroxypropyl beta-cyclodextrin.

Compound | Cholesterol efflux from cells treated with compounds, relative to reference standard ([1]; 0.1 mM) | Cholesterol efflux from cells treated with compounds, relative to reference standard ([1]; 0.3 mM) | Cholesterol efflux from cells treated with compounds, relative to reference standard ([1]; 1 mM) | Release of lactate dehydrogenase from cells treated with compounds, relative to reference standard ([2]; 0.1 mM) | Release of lactate dehydrogenase from cells treated with compounds, relative to reference standard ([2]; 0.3 mM) | Release of lactate dehydrogenase from cells treated with compounds, relative to reference standard ([2]; 1 mM)
COCCO[C@H]1[C@H]2O[C@H]3[C@H](O)[C@@H](OCCOC)[C@@H](O[C@H]4[C@H](O)[C@@H](OCCOC)[C@@H](O[C@H]5[C@H](O)[C@@H](OCCOC)[C@@H](O[C@H]6[C@H](O)[C@@H](OCCOC)[C@@H](O[C@H]7[C@H](O)[C@@H](OCCOC)[C@@H](O[C@H]8[C@H](O)[C@@H](OCCOC)[C@@H](O[C@@H]([C@@H]1O)[C@@H](CO)O2)O[C@@H]8CO)O[C@@H]7CO)O[C@@H]6CO)O[C@@H]5CO)O[C@@H]4CO)O[C@@H]3CO [Compound 1] | 0 (0 denotes compounds with a CEC of 96%-105% of that of the reference standard) | 0 (0 denotes compounds with a CEC of 96%-105% of that of the reference standard) | 0 (0 denotes compounds with a CEC of 96%-105% of that of the reference standard) | B (B denotes compounds releasing LDH in an amount of 71-95% of that of the reference standard) | B (B denotes compounds releasing LDH in an amount of 71-95% of that of the reference standard) | B (B denotes compounds releasing LDH in an amount of 71-95% of that of the reference standard)
OCC(O)CO[C@H]1[C@H]2O[C@H]3[C@H](O)[C@@H](OCC(O)CO)[C@@H](O[C@H]4[C@H](O)[C@@H](OCC(O)CO)[C@@H](O[C@H]5[C@H](O)[C@@H](OCC(O)CO)[C@@H](O[C@H]6[C@H](O)[C@@H](OCC(O)CO)[C@@H](O[C@H]7[C@H](O)[C@@H](OCC(O)CO)[C@@H](O[C@H]8[C@H](O)[C@@H](OCC(O)CO)[C@@H](O[C@@H]([C@@H]1O)[C@@H](CO)O2)O[C@@H]8CO)O[C@@H]7CO)O[C@@H]6CO)O[C@@H]5CO)O[C@@H]4CO)O[C@@H]3CO (stereo partly drawn) [Compound 3] | − (—denotes compounds with a CEC of 75%-95% of that of the reference standard) | − (—denotes compounds with a CEC of 75%-95% of that of the reference standard) | − (—denotes compounds with a CEC of 75%-95% of that of the reference standard) | ++ (++denotes compounds releasing LDH in an amount of >120% of that of the reference standard) | + (+denotes compounds releasing LDH in an amount of 106%-120% of that of the reference standard) | 0 (0 denotes compounds releasing LDH in an amount of 96%-105% of that of the reference standard)
CC(O)CO[C@@H]1[C@@H](O)[C@H]2O[C@H]3[C@H](OCC(C)O)[C@@H](O)[C@@H](O[C@H]4[C@H](OCC(C)O)[C@@H](O)[C@@H](O[C@H]5[C@H](OCC(C)O)[C@@H](O)[C@@H](O[C@H]6[C@H](OCC(C)O)[C@@H](O)[C@@H](O[C@H]7[C@H](OCC(C)O)[C@@H](O)[C@@H](O[C@H]8[C@H](OCC(C)O)[C@@H](O)[C@@H](O[C@@H]1[C@@H](CO)O2)O[C@@H]8CO)O[C@@H]7CO)O[C@@H]6CO)O[C@@H]5CO)O[C@@H]4CO)O[C@@H]3CO (stereo partly drawn) [Compound 4] | − (—denotes compounds with a CEC of 75%-95% of that of the reference standard) | − (—denotes compounds with a CEC of 75%-95% of that of the reference standard) | − (—denotes compounds with a CEC of 75%-95% of that of the reference standard) | ++ (++denotes compounds releasing LDH in an amount of >120% of that of the reference standard) | ++ (++denotes compounds releasing LDH in an amount of >120% of that of the reference standard) | ++ (++denotes compounds releasing LDH in an amount of >120% of that of the reference standard)
CC(O)CO[C@H]1[C@H]2O[C@H]3[C@H](O)[C@@H](OCC(C)O)[C@@H](O[C@H]4[C@H](O)[C@@H](OCC(C)O)[C@@H](O[C@H]5[C@H](O)[C@@H](OCC(C)O)[C@@H](O[C@H]6[C@H](O)[C@@H](OCC(C)O)[C@@H](O[C@H]7[C@H](O)[C@@H](OCC(C)O)[C@@H](O[C@H]8[C@H](O)[C@@H](OCC(C)O)[C@@H](O[C@@H]([C@@H]1O)[C@@H](CO)O2)O[C@@H]8CO)O[C@@H]7CO)O[C@@H]6CO)O[C@@H]5CO)O[C@@H]4CO)O[C@@H]3CO (stereo partly drawn) [Compound 5] | − (—denotes compounds with a CEC of 75%-95% of that of the reference standard) | − (—denotes compounds with a CEC of 75%-95% of that of the reference standard) | − (—denotes compounds with a CEC of 75%-95% of that of the reference standard) | 0 (0 denotes compounds releasing LDH in an amount of 96%-105% of that of the reference standard) | 0 (0 denotes compounds releasing LDH in an amount of 96%-105% of that of the reference standard) | 0 (0 denotes compounds releasing LDH in an amount of 96%-105% of that of the reference standard)
CC(C)(O)CO[C@@H]1[C@@H](O)[C@H]2O[C@H]3[C@H](OCC(C)(C)O)[C@@H](O)[C@@H](O[C@H]4[C@H](OCC(C)(C)O)[C@@H](O)[C@@H](O[C@H]5[C@H](OCC(C)(C)O)[C@@H](O)[C@@H](O[C@H]6[C@H](OCC(C)(C)O)[C@@H](O)[C@@H](O[C@H]7[C@H](OCC(C)(C)O)[C@@H](O)[C@@H](O[C@H]8[C@H](OCC(C)(C)O)[C@@H](O)[C@@H](O[C@@H]1[C@@H](CO)O2)O[C@@H]8CO)O[C@@H]7CO)O[C@@H]6CO)O[C@@H]5CO)O[C@@H]4CO)O[C@@H]3CO [Compound 6] | 0 (0 denotes compounds with a CEC of 96%-105% of that of the reference standard) | − (—denotes compounds with a CEC of 75%-95% of that of the reference standard) | − (—denotes compounds with a CEC of 75%-95% of that of the reference standard) | 0 (0 denotes compounds releasing LDH in an amount of 96%-105% of that of the reference standard) | + (+denotes compounds releasing LDH in an amount of 106%-120% of that of the reference standard) | + (+denotes compounds releasing LDH in an amount of 106%-120% of that of the reference standard)
